Laboratory results reported in article PMC3827032, “Functional Analysis of Hsp70 Inhibitors” (PLoS ONE, 2013).
Each block holds one molecule with its values, some of them ahead of it.

Experiments:
Hsp70 [1] = biological target: T1, Hsp70 (Homo sapiens, UniProt P0DMV8); parameters: gene HSPA1A
Hsp70 [2] = biological target: T1, Hsp70; assay: crystal structure of NBD ([…] Å), ITC ([…]), SPR ([…]), DSC, ATPase inhibition (Ki […]; […] with Hdj1); format: binding; parameters: gene HSPA1A; full-length (ITC, SPR); NBD residues 1–382 (crystal structure)
Hsp70 [3] = biological target: T1, Hsp70; assay: ITC ([…]), SPR ([…]), DSC (Tm +[…]°C); format: binding; parameters: gene HSPA1A; full-length, nucleotide-free

T1 sequence (P0DMV8 2-641): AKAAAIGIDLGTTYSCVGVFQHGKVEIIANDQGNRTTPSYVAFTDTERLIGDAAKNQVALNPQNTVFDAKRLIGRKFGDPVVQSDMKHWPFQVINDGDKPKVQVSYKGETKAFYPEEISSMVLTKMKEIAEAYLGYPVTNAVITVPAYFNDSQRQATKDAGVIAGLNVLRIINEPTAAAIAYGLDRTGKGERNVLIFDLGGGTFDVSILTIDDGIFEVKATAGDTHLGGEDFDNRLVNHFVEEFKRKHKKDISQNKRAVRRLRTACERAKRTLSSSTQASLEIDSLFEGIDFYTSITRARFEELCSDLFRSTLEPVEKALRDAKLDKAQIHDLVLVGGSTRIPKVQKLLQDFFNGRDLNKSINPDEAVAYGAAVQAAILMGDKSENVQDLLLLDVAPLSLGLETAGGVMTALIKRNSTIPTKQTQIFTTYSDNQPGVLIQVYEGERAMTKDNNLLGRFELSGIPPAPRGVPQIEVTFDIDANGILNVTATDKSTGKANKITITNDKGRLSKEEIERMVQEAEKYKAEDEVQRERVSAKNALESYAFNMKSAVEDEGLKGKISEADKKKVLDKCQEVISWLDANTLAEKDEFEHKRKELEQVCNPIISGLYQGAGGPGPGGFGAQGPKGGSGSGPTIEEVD

Structure (SMILES): Nc1ncnc2c1ncn2[C@@H]1O[C@H](COP(=O)(O)OP(=O)(O)OP(=O)(O)O)[C@@H](O)[C@H]1O [ATP]
Km (Hsp70 [1]): 9.9 ± 1.3 µM

Kd (Hsp70 [2]): 228 ± 16 nM
Structure (SMILES): N#Cc1ccc(COC[C@H]2O[C@@H](n3c(NCc4ccc(Cl)c(Cl)c4)nc4c(N)ncnc43)[C@H](O)[C@@H]2O)cc1 [VER-155008]

Kd (Hsp70 [3]): 7.7 ± 0.4 nM
Structure (SMILES): Nc1ncnc2c1ncn2[C@@H]1O[C@H](COP(=O)(O)OP(=O)(O)O)[C@@H](O)[C@H]1O [ADP]
